Results as given in PubChem BioAssay (NCI).
Several values for one entry are separate records, joined by “and”; a condition that tells them apart may be missing. Identical values can stand only once.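 Briefly, cells in 96-well plates were exposed to five compound concentrations for 48 h, and endpoints were estimated by linear interpolation. Abbreviation: GI50, concentration required for 50% inhibition of growth. Definition used: TGI = concentration required for complete inhibition of growth.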

How the values were obtained:
Assay in all cases: NCI-60 cell line screen, 48 h
UO-31 renal = system: UO-31 renal
U251 CNS = system: U251 CNS
K-562 leukemia = system: K-562 leukemia
COLO 205 colon = system: COLO 205 colon
M14 melanoma = system: M14 melanoma
SK-MEL-2 melanoma = system: SK-MEL-2 melanoma
PC-3 prostate = system: PC-3 prostate
NCI/ADR-RES ovarian = system: NCI/ADR-RES ovarian
RPMI-8226 leukemia = system: RPMI-8226 leukemia
BT-549 breast = system: BT-549 breast

| SMILES | GI50 (UO-31 renal) | TGI (UO-31 renal) | GI50 (U251 CNS) | TGI (U251 CNS) | GI50 (K-562 leukemia) [µM] | TGI (K-562 leukemia) [µM] | GI50 (COLO 205 colon) | TGI (COLO 205 colon) | GI50 (M14 melanoma) | TGI (M14 melanoma) | GI50 (SK-MEL-2 melanoma) | TGI (SK-MEL-2 melanoma) | GI50 (PC-3 prostate) | TGI (PC-3 prostate) | GI50 (NCI/ADR-RES ovarian) | TGI (NCI/ADR-RES ovarian) | GI50 (RPMI-8226 leukemia) [µM] | TGI (RPMI-8226 leukemia) [µM] | GI50 (BT-549 breast) | TGI (BT-549 breast) |
| --- | --- | --- | --- | --- | --- | --- | --- | --- | --- | --- | --- | --- | --- | --- | --- | --- | --- | --- | --- | --- |
| CNc1cc(-c2cccc(OC(F)(F)F)c2)nc2ccc(N3CCCC3)cc12 | 1.36 µM and 1.32 µM and 1.42 µM | 2.67 µM and 2.61 µM and 2.74 µM | 1.58 µM and 1.69 µM and 1.67 µM | 3.07 µM and 3.08 µM and 3.11 µM | 0.884 | 3.61 | 1.84 µM and 1.81 µM | 3.58 µM and 3.29 µM | 1.64 µM and 1.72 µM and 1.69 µM | 3.04 µM and 3.24 µM and 3.14 µM | 1.72 µM and 1.69 µM and 1.77 µM | 3.19 µM and 3.17 µM and 3.23 µM | 1.46 µM and 1.61 µM and 1.5 µM | 2.95 µM and 3.1 µM and 3.01 µM | 1.78 µM and 1.89 µM and 1.6 µM | 3.87 µM and 3.79 µM and 3.19 µM | 1.71 | 4.19 | 2.14 µM and 1.94 µM and 1.79 µM | 6.17 µM and 3.65 µM and 3.33 µM |
| CSc1nc2c(c(=O)n1C)C(c1ccccc1)C1=C(N2)/C(=C/c2ccccc2)CCC1 (stereo not given) | 1.69 µM | 30.7 µM | 3.99 µM | 34.9 µM | 2.86 | > 100 | 10.3 µM | > 100 µM | 6.56 µM | > 100 µM | 9.48 µM | 42.6 µM | 7.11 µM | > 100 µM | 4.07 µM | > 100 µM | 5.31 | > 100 | 11.9 µM | > 100 µM |
| CC/C=C\C[C@H]1C/C=C2/C(=O)C(Cl)=C[C@@H]2C/C=C\CCCC(=O)O1 | 0.352 µM | 0.703 µM | 0.214 µM | 0.694 µM | 0.0961 | 3.14 | 0.467 µM | 0.958 µM | 0.681 µM | 3.08 µM | 0.453 µM | 1.13 µM | 0.346 µM | 0.986 µM | 0.423 µM | 2.37 µM | 0.0819 | 0.492 | 0.524 µM | 1.21 µM |
| CCS(=O)(=O)c1ccc(OC)c(Nc2ncc(-c3cccc(F)c3)o2)c1 | > 25 µM | > 25 µM | > 25 µM | > 25 µM | > 25 | > 25 | > 25 µM | > 25 µM | > 25 µM | > 25 µM | > 25 µM | > 25 µM | > 25 µM | > 25 µM | > 25 µM | > 25 µM | > 25 | > 25 | > 25 µM | > 25 µM |
| O=C(NCCNCCO)c1ccc(Nc2nc3ccccc3c3occc23)cc1 | 18.5 µM | 44.9 µM | 11.2 µM | 23.8 µM | 3.37 | 6.71 | 29.1 µM | > 100 µM | 14.9 µM | 30.4 µM | 20.5 µM | 60.3 µM | 4.15 µM | 18.3 µM | 24.9 µM | 61.8 µM | 18.3 | 37.5 | 11.5 µM | 34.2 µM |
| COc1cnccc1Nc1nc(-c2nn(Cc3c(F)cc(OCCO)cc3F)c3ccccc23)ncc1OC | 1.97 µM | 8.43 µM | 1.59 µM | 3.76 µM | 0.645 | > 100 | 17.7 µM | > 100 µM | 1.79 µM | 10 µM | 11 µM | 27 µM | 2.55 µM | > 100 µM | 2.97 µM | 16.5 µM | 2.19 | 55.2 | 6.51 µM | 28.5 µM |
| COc1ccc2c(c1)C(=O)c1c-2n(CCCN(C)C)c(=O)c2cc([N+](=O)[O-])ccc12 | < 0.01 µM | 0.0294 µM | < 0.01 µM | 1.07 µM | < 0.01 | 2.29 | 0.0483 µM | 12.9 µM | < 0.01 µM | 0.0428 µM | 0.545 µM | 7.17 µM | < 0.0278 µM | 1.05 µM | < 0.01 µM | 0.188 µM | < 0.01 | 0.0707 | 0.0159 µM | 0.621 µM |
| O=C1NC(=NCCc2ccc(Br)cc2)S/C1=C\c1ccc2ncccc2c1 | > 25 µM | > 25 µM | > 18.9 µM | > 25 µM | 24.6 | > 25 | > 25 µM | > 25 µM | > 25 µM | > 25 µM | 21.6 µM | > 25 µM | > 25 µM | > 25 µM | > 20.6 µM | > 25 µM | > 25 | > 25 | > 21.6 µM | > 25 µM |
| C[C@]12CCC(=O)C[C@@H]1CC[C@@H]1[C@@H]2CC[C@]2(C)[C@@H](OC(=O)N(CCCl)N=O)CC[C@@H]12 | 1.11 µM | 10.5 µM | 0.394 µM | 14 µM | 2.69 | > 43.4 | 1.7 µM | 4.72 µM | 0.752 µM | 22.3 µM | 3.47 µM | 16.8 µM | 1.1 µM |  | 1.22 µM | 28 µM | 2.02 | 6.89 | 4.87 µM | 21.7 µM |
| CN(CCCCCl)P(=O)(OCc1ccc([N+](=O)[O-])o1)OCC1OC(n2cc([N+](=O)[O-])c(=O)[nH]c2=O)CC1O (stereo not given) | > 100 µM | > 100 µM | > 100 µM | > 100 µM | 49.8 | > 100 | 44 µM | > 100 µM | 31.3 µM | > 100 µM | > 100 µM | > 100 µM | > 100 µM | > 100 µM | > 100 µM | > 100 µM | > 100 | > 100 | 46.2 µM | > 100 µM |
| CCN1C(=O)N(CC)C2C1N=C(SC)N2/N=C/C=C/c1ccccc1OC (stereo not given) | 0.821 µM | > 47.3 µM | 0.411 µM | > 33.1 µM | 0.361 | > 42.8 | 0.324 µM |  | 0.33 µM | > 37.4 µM | 1.2 µM | > 39.3 µM | 0.47 µM | > 45.3 µM | 0.329 µM |  | 0.37 | 3.31 | 0.479 µM | 19.6 µM |
| COc1cc(C(=O)O[C@H](C(=O)NCCCCNC(=O)[C@@H](OC(=O)c2cc(OC)cc3c(C)cccc23)[C@]2(C)CO2)[C@]2(C)CO2)c2cccc(C)c2c1 | 0.466 µM | > 100 µM | < 0.01 µM | 0.107 µM |  | 3.05 | 0.111 µM | 3.65 µM | 0.0769 µM | 0.591 µM | 0.0724 µM |  | 0.114 µM | 1.5 µM | 0.199 µM | 0.904 µM | 0.195 | 3.86 | 0.305 µM | 5.53 µM |
| C=CCSC(C)=O |  | > 100 µM |  | > 100 µM |  | > 100 |  | > 100 µM |  | > 100 µM |  | > 100 µM |  | > 100 µM |  | > 100 µM |  | > 100 |  | > 100 µM |
